What was measured:
diabetic rats = assay: Antidiabetic effect study in diabetic rats; assay type: in vivo; settings: streptozotocin-induced diabetic rats; for reduction in blood glucose level (in words): 5 rats per group, glucometer, 0-8 h
Experimental: Glucose lowering effect of orally administered optimized SMEDDS was monitored in diabetic rats. Study was performed with the approval Pharmacy Ethical Committee, Bahauddin Zakariya University, Multan, Pakistan (249/PEC/2023 dated 25 March 2023). Diabetes was introduced in rats weighing 220–240 g by injecting streptozotocin solution at the dose of (45 mg/kg body weight) intraperitoneally. Fasting blood glucose (FBG) level of all the rats was measured after 3 days using glucometer (AccuChek Performa, Hoffman-La Roche, Basel, Switzerland). Rats with FBG level 200–250 mg/dL were considered diabetic and were included in the study. All rats were fasted over night before experiment and start of treatment. Diabetic rats were divided randomly in 5 groups with 5 rats per group. […] Blood samples were collected at regular time intervals, i.e., 0, 0.5, 1, 1.5, 2, 3, 4, 6, and 8 h and measured for hypoglycemic effects using glucometer.

Solubility in n-octanol = assay type: physicochemical; settings: insulin measured spectrophotometrically at 270 nm, sentence also cites refs 14, 15
Experimental: After 4 h of magnetic stirring, the mixture was centrifuged for 30 min at 5000 rpm.

[1] = stated without reference; cited from earlier work
Description: HIP of peptides with surfactants is an efficient tool to enhance its lipophilic characteristics. […] These six positively charged amino acids (two Histidine, one Arginine, one Lysine and two N-terminal amino aci ...

Human insulin
reduction in blood glucose level (in words) (diabetic rats; oral, 50 IU/kg insulin equivalent): negligible anti-diabetic effect
reduction in blood glucose level (in words) (diabetic rats; subcutaneous, 5 IU/kg): Maximum reduction in blood glucose level
duration of glucose lowering effect (diabetic rats; subcutaneous, 5 IU/kg, entire duration of the experiment): up to 8 h
solubility in n-octanol (Solubility in n-octanol): ~0.017 mg/mL
isoelectric point [1]: 5.35–5.45
